Measurements taken from ChEMBL document CHEMBL1150908, “Mollenines A and B: new dioxomorpholines from the ascostromata of Eupenicillium molle” (1998).
Calls of active or inactive are those of the source. The calls are words filed in the database; no cut-off is given here.

Legend:
Bacillus subtilis = test: Antimicrobial activity against Bacillus subtilis at 200 ug/disk; type: functional, organism-based
[1] = Cytotoxicity against human NCI60 cells; type: functional

Question: For `CC(C)=CC[C@@]12C[C@@H]3C(=O)O[C@H](CC(C)C)C(=O)N3[C@@H]1Nc1ccccc12` [MOLLENINE A], which Activity (Bacillus subtilis) is on record?
Answer: Its Activity is “Active”.

Question: And the GI50 [1]?
Answer: The GI50 was 31 µM.
